Consider 28 compounds from patent US20260078120A1, “SUBSTITUTED PYRIDOPYRIMIDINONES” (MIRATI THERAPEUTICS, INC., priority 2022, published 2026).

Usually IC50 stands for the concentration at which inhibition is half-maximal.

Where only a bound is given, the exact number is not on record here.

The test system of experiment [1] is SKBR3 (PI3Kα wild type) cells. The experiment in a line: CellTiter-Glo 2.0 luminescent cell viability assay, 72 hours, SKBR3 cells. Format: cell-based. Conditions: Homo sapiens, SK-BR-3, 72 h, SKBR3 (PI3Kα wild type) cells, CellTiter-Glo, approximately 72 hours; read-out: SKBR3 (WT) Viability IC50. The method in brief: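 Viability measured via CTG luminescence following roughly 72 hours of compound exposure at 37° C. Dosing used a 10 um starting concentration diluted 1:4 over 10 points; percent-of-vehicle data fitted with a variable-slope four-parameter model for IC50.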
(Cellular ATP, detected with luciferase, serves as a proxy for viable cell number.)

Experiment [2] deals with T47D (PI3Kα H1047R mutant) cells. As to the kind of experiment: CellTiter-Glo 2.0 luminescent cell viability assay, 72 hours, T47D cells. Conditions: Homo sapiens, T47D, 72 h, T47D (PI3Kα H1047R mutant) cells, CellTiter-Glo, approximately 72 hours; read-out: T47D (H1047R mutant) Viability IC50. Format: cell-based. The method in brief:
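Cells seeded at 1000 per well overnight were dosed with a 10-concentration, 1:4 series starting at 10 µM and incubated ~72 h at 37° C. Viability was read by CellTiter-Glo 2.0 luminescence after 30 min at room temperature. IC50 came from four-parameter fits of percent vehicle control.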

Turning to `Cc1cc([C@@H](C)Nc2ccccc2C(=O)O)c2nc([C@H]3CCN(C)C(=O)C3)cc(=O)n2c1` [Example 11-376, 2-(((R)-1-(7-methyl-2-((S)-1-methyl-2-oxopiperidin-4-yl)-4-oxo-4H-pyrido[1,2-a]pyrimidin-9-yl)ethyl)amino)benzoic acid], the concentration for half-maximal inhibition (IC50) in experiment [1] was more than 10 µM; in experiment [2], 6 µM.

Turning to `Cc1cc(C(C)Nc2ccccc2C(=O)O)c2nc(C3CCN(C)C(=O)C3)cc(=O)n2c1` (centres unmarked) [Example 11-377, 2-((1-(7-methyl-2-(1-methyl-2-oxopiperidin-4-yl)-4-oxo-4H-pyrido[1,2-a]pyrimidin-9-yl)ethyl)amino)benzoic acid], the 50% inhibitory concentration (IC50) is more than 10 µM in experiment [1] and 3.63 µM in experiment [2].

As for `Cc1cc(C(C)Nc2ccccc2C(=O)O)c2nc(C3=CCNCC3)cc(=O)n2c1` (centres unmarked) [Example 11-378, 2-((1-(7-methyl-4-oxo-2-(1,2,3,6-tetrahydropyridin-4-yl)-4H-pyrido[1,2-a]pyrimidin-9-yl)ethyl)amino)benzoic acid], the half-maximal inhibitory concentration (IC50) in experiment [1] and in experiment [2] was more than 10 µM in each case.

Consider `CC(=O)N1CC=C(c2cc(=O)n3cc(C)cc([C@@H](C)Nc4ccccc4C(=O)O)c3n2)CC1` [Example 11-379, (R)-2-((1-(2-(1-acetyl-1,2,3,6-tetrahydropyridin-4-yl)-7-methyl-4-oxo-4H-pyrido[1,2-a]pyrimidin-9-yl)ethyl)amino)benzoic acid], for which the values for the IC50 in experiment [1] and in experiment [2] were more than 10 µM and 3.91 µM, respectively.

In the case of `Cc1cc(C(C)Nc2ccccc2C(=O)O)c2nc(C3CCNCC3)cc(=O)n2c1` (centres unmarked) [Example 11-380, 2-((1-(7-methyl-4-oxo-2-(piperidin-4-yl)-4H-pyrido[1,2-a]pyrimidin-9-yl)ethyl)amino)benzoic acid], the IC50 in experiment [1] and in experiment [2] was more than 10 µM throughout.

As to `CC(=O)N1CCC(c2cc(=O)n3cc(C)cc(C(C)Nc4ccccc4C(=O)O)c3n2)CC1` (centres unmarked) [Example 11-381, 2-((1-(2-(1-acetylpiperidin-4-yl)-7-methyl-4-oxo-4H-pyrido[1,2-a]pyrimidin-9-yl)ethyl)amino)benzoic acid], the IC50 in experiment [1] was more than 10 µM; in experiment [2], 5.46 µM.

`Cc1cc(C(C)Nc2ccccc2C(=O)O)c2nc(N3CCc4cnn(C)c4C3)cc(=O)n2c1` (centres unmarked) [Example 11-382, 2-((1-(7-methyl-2-(1-methyl-1,4,5,7-tetrahydro-6H-pyrazolo[3,4-c]pyridin-6-yl)-4-oxo-4H-pyrido[1,2-a]pyrimidin-9-yl)ethyl)amino)benzoic acid]: the figures for the IC50 in experiment [1] and in experiment [2] were more than 10 µM and 4.32 µM, respectively.

Take `Cc1cc(C(C)Nc2ccccc2C(=O)O)c2nc(-c3ccc(=O)n(C)c3)cc(=O)n2c1` (centres unmarked) [Example 11-383, 2-((1-(7-methyl-2-(1-methyl-6-oxo-1,6-dihydropyridin-3-yl)-4-oxo-4H-pyrido[1,2-a]pyrimidin-9-yl)ethyl)amino)benzoic acid]: the IC50 in experiment [1] is more than 10 µM; in experiment [2], 4.03 µM.

With `Cc1cc(C(C)NC2CC(C(=O)O)C2)c2nc(N3CCCCC3)cc(=O)n2c1` (centres unmarked) [Example 11-385, 3-((1-(7-methyl-4-oxo-2-(piperidin-1-yl)-4H-pyrido[1,2-a]pyrimidin-9-yl)ethyl)amino)cyclobutane-1-carboxylic acid], the half-inhibitory concentration (IC50) in experiment [1] and in experiment [2] was more than 10 µM each time.

On to `Cc1cc(C(C)NCCC(=O)O)c2nc(N3CCCCC3)cc(=O)n2c1` (centres unmarked) [Example 11-386], for which the IC50 in experiment [1] and in experiment [2] was more than 10 µM each time.

As for `Cc1cc(C(C)NC(C)(C)CC(=O)O)c2nc(N3CCCCC3)cc(=O)n2c1` (centres unmarked) [Example 11-387, 3-methyl-3-((1-(7-methyl-4-oxo-2-(piperidin-1-yl)-4H-pyrido[1,2-a]pyrimidin-9-yl)ethyl)amino)butanoic acid], the IC50 in experiment [1] and in experiment [2] was more than 10 µM each time.

With `Cc1cc(C(C)Nc2ccc(C(=O)O)cc2)c2nc(N3CCCCC3)cc(=O)n2c1` (centres unmarked) [Example 11-388, 4-((1-(7-methyl-4-oxo-2-(piperidin-1-yl)-4H-pyrido [1,2-a]pyrimidin-9-yl)ethyl)amino)benzoic acid], the IC50 in experiment [1] and in experiment [2] was more than 10 µM throughout.

Take `Cc1cc(C(C)Nc2cccc(C(=O)O)c2)c2nc(N3CCCCC3)cc(=O)n2c1` (centres unmarked) [Example 11-389, 3-((1-(7-methyl-4-oxo-2-(piperidin-1-yl)-4H-pyrido[1,2-a]pyrimidin-9-yl)ethyl)amino)benzoic acid]: the IC50 in experiment [1] and in experiment [2] was more than 10 µM throughout.

In the case of `Cc1cc(C(C)Nc2cccc(C)c2C(=O)O)c2nc(N3CCCCC3)cc(=O)n2c1` (centres unmarked) [Example 11-390, 2-methyl-6-((1-(7-methyl-4-oxo-2-(piperidin-1-yl)-4H-pyrido[1,2-a]pyrimidin-9-yl)ethyl)amino)benzoic acid], the IC50 in experiment [1] and in experiment [2] was more than 10 µM each time.

With `Cc1cc(C(C)Nc2ccccc2C(=O)O)c2nc(-c3ccc(F)cc3)cc(=O)n2c1` (centres unmarked) [Example 11-391, 2-((1-(2-(4-fluorophenyl)-7-methyl-4-oxo-4H-pyrido[1,2-a]pyrimidin-9-yl)ethyl)amino)benzoic acid], the results for the IC50 in experiment [1] and in experiment [2] were more than 10 µM and 9.62 µM, respectively.

For the compound `COc1ccc(-c2cc(=O)n3cc(C)cc(C(C)Nc4ccccc4C(=O)O)c3n2)cc1` (centres unmarked) [Example 11-392, 2-((1-(2-(4-methoxyphenyl)-7-methyl-4-oxo-4H-pyrido[1,2-a]pyrimidin-9-yl)ethyl)amino)benzoic acid], the values for the half-inhibitory concentration (IC50) in experiment [1] and in experiment [2] were more than 10 µM and 4.04 µM, respectively.

`COc1cccc(-c2cc(=O)n3cc(C)cc(C(C)Nc4ccccc4C(=O)O)c3n2)c1` (centres unmarked) [Example 11-393, 2-((1-(2-(3-methoxyphenyl)-7-methyl-4-oxo-4H-pyrido[1,2-a]pyrimidin-9-yl)ethyl)amino)benzoic acid]: the IC50 in experiment [1] is more than 10 µM; in experiment [2], 1.29 µM.

In the case of `COc1ccccc1-c1cc(=O)n2cc(C)cc(C(C)Nc3ccccc3C(=O)O)c2n1` (centres unmarked) [Example 11-394, 2-((1-(2-(2-methoxyphenyl)-7-methyl-4-oxo-4H-pyrido[1,2-a]pyrimidin-9-yl)ethyl)amino)benzoic acid], the IC50 in experiment [1] and in experiment [2] was more than 10 µM each time.

`Cc1cc(C(C)Nc2ccccc2C(=O)O)c2nc(-c3ccccc3C)cc(=O)n2c1` (centres unmarked) [Example 11-395, 2-((1-(7-methyl-4-oxo-2-(o-tolyl)-4H-pyrido[1,2-a]pyrimidin-9-yl)ethyl)amino)benzoic acid]: the IC50 in experiment [1] and in experiment [2] was more than 10 µM each time.

For the compound `Cc1cc(C(C)Nc2ccccc2C(=O)O)c2nc(-c3ccc(Cl)cc3)cc(=O)n2c1` (centres unmarked) [Example 11-396, 2-((1-(2-(4-chlorophenyl)-7-methyl-4-oxo-4H-pyrido[1,2-a]pyrimidin-9-yl)ethyl)amino)benzoic acid], the half-maximal inhibitory concentration (IC50) was more than 10 µM in experiment [1] and 4.38 µM in experiment [2].

Take `Cc1cc(C(C)Nc2ccccc2C(=O)O)c2nc(-c3ccc(C#N)cc3)cc(=O)n2c1` (centres unmarked) [Example 11-397, 2-((1-(2-(4-cyanophenyl)-7-methyl-4-oxo-4H-pyrido[1,2-a]pyrimidin-9-yl)ethyl)amino)benzoic acid]: the figures for the half-inhibitory concentration (IC50) in experiment [1] and in experiment [2] were more than 10 µM and 3.37 µM, respectively.

`Cc1cc(C(C)Nc2ccccc2C(=O)O)c2nc(-c3cccc(C#N)c3)cc(=O)n2c1` (centres unmarked) [Example 11-398, 2-((1-(2-(3-cyanophenyl)-7-methyl-4-oxo-4H-pyrido[1,2-a]pyrimidin-9-yl)ethyl)amino)benzoic acid]: the IC50 in experiment [1] and in experiment [2] was more than 10 µM throughout.

On to `Cc1cc(C(C)Nc2ccccc2C(=O)O)c2nc(-c3ccccc3C#N)cc(=O)n2c1` (centres unmarked) [Example 11-399, 2-((1-(2-(2-cyanophenyl)-7-methyl-4-oxo-4H-pyrido[1,2-a]pyrimidin-9-yl)ethyl)amino)benzoic acid], for which the IC50 in experiment [1] and in experiment [2] was more than 10 µM throughout.

As for `Cc1cc(C(C)Nc2ccccc2C(=O)O)c2nc(-c3ccncc3)cc(=O)n2c1` (centres unmarked) [Example 11-400, 2-((1-(7-methyl-4-oxo-2-(pyridin-4-yl)-4H-pyrido[1,2-a]pyrimidin-9-yl)ethyl)amino)benzoic acid], the IC50 was more than 10 µM in experiment [1] and 1.05 µM in experiment [2].

As to `Cc1cc(C(C)Nc2ccccc2C(=O)O)c2nc(-c3cccnc3)cc(=O)n2c1` (centres unmarked) [Example 11-401, 2-((1-(7-methyl-4-oxo-2-(pyridin-3-yl)-4H-pyrido[1,2-a]pyrimidin-9-yl)ethyl)amino)benzoic acid], the IC50 is more than 10 µM in experiment [1] and 3.27 µM in experiment [2].

Take `Cc1cc(C(C)Nc2ccccc2C(=O)O)c2nc(-c3ccccn3)cc(=O)n2c1` (centres unmarked) [Example 11-402, 2-((1-(7-methyl-4-oxo-2-(pyridin-2-yl)-4H-pyrido[1,2-a]pyrimidin-9-yl)ethyl)amino)benzoic acid]: the IC50 is more than 10 µM in experiment [1] and 6.87 µM in experiment [2].

On to `Cc1cc(C(C)Nc2ccccc2C(=O)O)c2nc(-c3ccccc3)c(C)c(=O)n2c1` (centres unmarked) [Example 11-403, 2-((1-(3,7-dimethyl-4-oxo-2-phenyl-4H-pyrido[1,2-a]pyrimidin-9-yl)ethyl)amino)benzoic acid], for which the IC50 in experiment [1] is more than 10 µM; in experiment [2], 1.06 µM.

For the compound `Cc1cc(C(C)Nc2ccccc2C(=O)O)c2nc(-c3ccn(C)n3)cc(=O)n2c1` (centres unmarked) [Example 11-404, 2-((1-(7-methyl-2-(1-methyl-1H-pyrazol-3-yl)-4-oxo-4H-pyrido[1,2-a]pyrimidin-9-yl)ethyl)amino)benzoic acid], the IC50 in experiment [1] and in experiment [2] was more than 10 µM throughout.
